Paper PMC11005723, “Development of Complementary Photo‐arginine/lysine to Promote Discovery of Arg/Lys hPTMs Interactomes” (Advanced Science, 2024)

Key:
[1] = target: T1, PHD domain of UHRF1 (UHRF1PHD) (Homo sapiens, UniProt Q96T88); assay: ITC binding of H3 peptides to UHRF1PHD; conditions: 25 °C, 19 injections of peptide into protein, dz peptides carry pre‐installed biotin, done two times
T1 construct: the PHD domain of UHRF1 (UHRF1PHD)
T1 sequence (Q96T88 310-366 limits assumed): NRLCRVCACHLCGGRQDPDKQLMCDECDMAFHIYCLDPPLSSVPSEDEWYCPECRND
Method: Experiments were performed at 25 °C on a MicroCal PEAQ‐ITC automated (Malvern Instruments). Protein was loaded in the cell was titrated with 19 injections of peptides. The binding isotherm was fit with MicroCal PEAQ‐ITC Analysis software. The assay was done two times to confirm results.

[2] = target: T2, tandem PHD domain of DPF2 (DPF2PHD) (Homo sapiens, UniProt Q92785); assay: ITC binding of native H3 peptides to DPF2PHD; conditions: 25 °C, native H3_1‐15 peptides without diazirine and biotin, n = 2, representative data
T2 construct: His‐DPF2PHD (residues 270–391) domain in pET28‐MHL vector; His (N); made in house; host or cells: Escherichia coli BL21 (DE3)
T2 sequence (Q92785 270-391): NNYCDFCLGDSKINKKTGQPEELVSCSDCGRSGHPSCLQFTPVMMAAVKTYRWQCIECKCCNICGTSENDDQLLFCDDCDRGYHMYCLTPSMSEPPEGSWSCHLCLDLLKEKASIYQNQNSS

RBBP7 = target: T3, RBBP7 (Homo sapiens, UniProt Q16576); assay: ITC binding of native H3 peptides to RBBP7; conditions: H3R2me2a versus H3R2, from ITC Kd
T3 construct: DNA fragment encoding RBBP4/7 (1‐ 425) was cloned into pFBOH‐LIC donor plasmid; His (inferred from Ni-NTA purification; vector pFBOH-LIC); made in house; host or cells: sf9 insect cells (baculovirus)
T3 sequence (Q16576 whole entry, the tested form may be a part): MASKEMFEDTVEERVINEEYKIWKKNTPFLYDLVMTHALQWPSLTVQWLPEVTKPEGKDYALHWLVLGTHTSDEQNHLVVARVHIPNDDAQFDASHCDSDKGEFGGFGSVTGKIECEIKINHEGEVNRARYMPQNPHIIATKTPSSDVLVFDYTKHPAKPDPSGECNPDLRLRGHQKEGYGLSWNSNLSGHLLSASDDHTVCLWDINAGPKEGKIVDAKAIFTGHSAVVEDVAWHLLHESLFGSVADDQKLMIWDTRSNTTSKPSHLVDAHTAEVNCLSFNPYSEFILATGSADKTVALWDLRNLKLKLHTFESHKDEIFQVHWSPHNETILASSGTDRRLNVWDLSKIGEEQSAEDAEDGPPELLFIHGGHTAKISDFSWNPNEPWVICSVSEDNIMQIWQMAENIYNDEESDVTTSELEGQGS
Method: (§1) DNA fragment encoding RBBP4/7 (1‐ 425) was cloned into pFBOH‐LIC donor plasmid. The resulting plasmid was transformed into DH10Bac Competent E. coli cells (Invitrogen) and a recombinant Bacmid DNA was purified and followed by a recombinant baculovirus generation in sf9 insect cells. sf9 cells grown in HyQ SFX insect serum‐free medium (Thermo Scientific) were infected with 10 mL of P3 viral stocks per 1 L of suspension cell culture and incubated at 27 °C using a platform shaker set at 150 rpm. The cells were harvested by centrifugation (4000 rpm for 10 min at 4 °C) after 72 h of post‐infection time when viability dropped to 70–80%. […] Fractions were assessed by SDS‐PAGE electrophoresis and those containing pure protein were pooled, concentrated, and flash‐frozen for storage at −80 °C. […]

RBBP4 = target: T4, RBBP4 (Homo sapiens, UniProt Q09028); assay: ITC binding of native H3 peptides to RBBP4; conditions: H3R2me2a versus H3R2, from ITC Kd
T4 construct: DNA fragment encoding RBBP4/7 (1‐ 425) was cloned into pFBOH‐LIC donor plasmid; His (inferred from Ni-NTA purification; vector pFBOH-LIC); made in house; host or cells: sf9 insect cells (baculovirus)
T4 sequence (Q09028 whole entry, the tested form may be a part): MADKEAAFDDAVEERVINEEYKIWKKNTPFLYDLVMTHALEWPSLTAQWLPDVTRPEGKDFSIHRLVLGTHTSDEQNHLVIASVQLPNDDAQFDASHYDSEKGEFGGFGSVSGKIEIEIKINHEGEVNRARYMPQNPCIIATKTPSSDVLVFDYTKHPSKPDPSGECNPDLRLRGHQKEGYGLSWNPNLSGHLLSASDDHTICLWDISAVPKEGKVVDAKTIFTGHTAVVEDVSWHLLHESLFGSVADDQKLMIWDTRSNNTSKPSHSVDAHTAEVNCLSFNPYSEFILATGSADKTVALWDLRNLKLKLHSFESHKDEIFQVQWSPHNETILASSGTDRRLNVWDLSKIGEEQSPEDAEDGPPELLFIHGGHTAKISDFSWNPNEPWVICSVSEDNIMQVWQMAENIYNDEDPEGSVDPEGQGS
Method: as §1

[3] = target: T5, PWWP domain of MSH6 (MSH6PWWP) (Homo sapiens, UniProt P52701); assay: ITC binding of H3R2me2a to MSH6PWWP; conditions: 25 °C
T5 construct: His‐MSH6PWWP (residues 87–198) domain in pET28‐MHL vector; His (N); made in house; host or cells: Escherichia coli BL21 (DE3)
T5 sequence (P52701 87-198): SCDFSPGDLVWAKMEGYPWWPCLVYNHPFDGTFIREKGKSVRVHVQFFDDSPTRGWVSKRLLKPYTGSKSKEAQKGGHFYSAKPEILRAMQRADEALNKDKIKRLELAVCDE
Method: His‐MSH6PWWP (residues 87–198) domain in pET28‐MHL vector. His‐ MSH6PWWP were expressed in Escherichia coli strain BL21 (DE3) (Novagen) with 0.5 mM IPTG induction at 16 °C in LB medium. After cell lysis by French Press Cell Disrupter (Thermo) and centrifugation, the supernatant was applied to a HisTrap (GE Healthcare) nickel column, and the bound protein was eluted with a linear imidazole gradient from 20 to 500 mM. And further purified by a HiLoad 16/60 Superdex 75 (GE Healthcare) gel filtration column. The pure protein were pooled and dialyzed in buffer (100 mM NaCl, 20 mM Tris, pH 7.5) with Slide‐A‐Lyzer (10000 MWCO). At last, the dialyzed protein were concentrated with to 5 mg mL^−1 and stored in −80 °C freezer for future use. Experiments were performed at 25 °C on a MicroCal PEAQ‐ITC automated (Malvern Instruments). Protein was loaded in the cell was titrated with 19 injections of peptides. The binding isotherm was fit with MicroCal PEAQ‐ITC Analysis software. The assay was done two times to confirm results.

## C[C@H](N)C(=O)N[C@@H](CCCNC(=N)N)C(=O)N[C@H](C(=O)N[C@@H](CCC1(CN)N=N1)C(=O)N[C@@H](CCC(N)=O)C(=O)N[C@H](C(=O)N[C@@H](C)C(=O)N[C@@H](CCCNC(=N)N)C(=O)N[C@@H](CCCCN)C(=O)N[C@@H](CO)C(=O)N[C@H](C(=O)NCC(=O)NCC(=O)N[C@@H](CCCCNC(=O)CCCC[C@@H]1SC[C@@H]2NC(=O)N[C@@H]21)C(=O)N[C@@H](C)C(N)=O)[C@@H](C)O)[C@@H](C)O)[C@@H](C)O [H3K4‐dz]
[1]
  Kd: 6.4 µM

## C[C@H](N)C(=O)N[C@@H](CCCNC(=N)N(C)C)C(=O)N[C@H](C(=O)N[C@@H](CCC1(CN)N=N1)C(=O)N[C@@H](CCC(N)=O)C(=O)N[C@H](C(=O)N[C@@H](C)C(=O)N[C@@H](CCCNC(=N)N)C(=O)N[C@@H](CCCCN)C(=O)N[C@@H](CO)C(=O)N[C@H](C(=O)NCC(=O)NCC(=O)N[C@@H](CCCCNC(=O)CCCC[C@@H]1SC[C@@H]2NC(=O)N[C@@H]21)C(=O)N[C@@H](C)C(N)=O)[C@@H](C)O)[C@@H](C)O)[C@@H](C)O [H3R2me2a]
[2]
  Kd (DPF2PHD): no binding affinity detected
RBBP7
  decrease in binding affinity by asymmetric methylation (RBBP7): three–fourfold decrease
RBBP4
  decrease in binding affinity by asymmetric methylation (RBBP4): three–fourfold decrease
[3]
  interaction with MSH6PWWP via ITC: undetectable

## C[C@H](N)C(=O)N[C@@H](CC1(CNC(=N)N)N=N1)C(=O)N[C@H](C(=O)N[C@@H](CCCCN)C(=O)N[C@@H](CCC(N)=O)C(=O)N[C@H](C(=O)N[C@@H](C)C(=O)N[C@@H](CCCNC(=N)N)C(=O)N[C@@H](CCCCN)C(=O)N[C@@H](CO)C(=O)N[C@H](C(=O)NCC(=O)NCC(=O)N[C@@H](CCCCNC(=O)CCCC[C@@H]1SC[C@@H]2NC(=O)N[C@@H]21)C(=O)N[C@@H](C)C(N)=O)[C@@H](C)O)[C@@H](C)O)[C@@H](C)O [H3R2‐dz]
[1]
  Kd: 10.6 µM
